In patent US20150216182A1, “COMPOSITIONS AND METHODS OF THE ATTRACTION AND REPULSION OF INSECTS” (Olfactor Laboratories, Inc., priority 2012, published 2015):
Entries after “also recorded” stand apart in the source; their conditions may differ. Structures can show the parent of a compound that is named as a salt. Where two headings read alike, the source gives them in different places.

Tests used:
[1] = test system: Aedes aegypti mosquitoes; test: netsphere assay; assay type: in vivo; conditions: baited BG-Sentinel trap, overnight collection; FIG. 3
Description: The netsphere assay was conducted in a semi-field containment area. The containment area was 1,000 square feet in size and environmental cues such as temperature, humidity, lighting and airflow were controlled to replicate conditions that Aedes aegypti mosquitoes would encounter in the wild. The containment area was conditioned for 2 hours prior to experimentation to allow for equalization of environmental conditions. Fifty female and five male mosquitoes were then released into the chamber and given one hour to acclimate to the environment. Following this, a BG-Sentinel trap (Biogents AG, Regensburg, Germany) was baited with either cyclopentanone, 2-pentanone or 2,4-lutidine and placed in the chamber in the presence of a non-baited BG-Sentinel (as a negative control for trap attraction). The collection was allowed to proceed overnight during which lighting conditions in the chamber were set to mimic those of starlight. The following day, mosquitoes caught in the trap were frozen at −20° C. and counted. These counts were compared to control experiments where CO2 from a tank, at a flow rate of 250 ml/min, was used as bait.

[2] = test system: larvae; test: larvicidal activity assay; assay type: in vivo; conditions: for pest or weed control at 0.25 %: read-out: % Lethality with 0.25% compound conc.; for pest or weed control at 100 ppm: read-out: % Lethality at 100 ppm
Description: A 6-well plate (Corning Life Sciences, Tewksbury, Mass.) is used to test a compound's larvicidal activity. […] After a 24 hour exposure, the number of dead larvae are counted and recorded.
The results are presented in Table 17 as % lethality (the number of dead larvae divided by the total number of larvae).

[3] = test system: bed bugs (Cimex lectularius); test: bed bug repellency assay; assay type: in vivo; conditions: compound or combination on filter paper harborage, ten bed bugs
Outline: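 Ten Cimex lectularius per talc-lined petri dish chose between folded filter-paper harborages treated with isopropyl alcohol alone or compound in isopropyl alcohol […], dried before use. Bugs moved freely 5 min; occupancy beneath each tent recorded, with a solvent-only pairing as control.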

[4] = test system: female mosquitoes; test: whole plant or invertebrate; conditions: 2 h; for mortality at 200 µg/mL: read-out: % mortality with 0.2 mg/ml; for mortality at 2000 µg/mL: read-out: % mortality with 2 mg/ml
[5] = test system: cpA neurons; test: extracellular single-sensillum electrophysiology: activation of cpA neuronal activity; conditions: for Class: Table 6, single compounds, increase over baseline cpA neuronal activity; for Comp B Class: component B tested individually; for Class B (activator class of the individual component): Table 15, single component alone, Mod Actv
[6] = test system: Aedes aegypti; test: landing assay; assay type: in vivo; conditions: mesh treated with 1% in acetone, FIG. 2; for number of landings: 5 minute time course
Source text: Behavior assays were developed to aid in the evaluation of compounds and compositions of the present invention. These assays include the landing assay and the netsphere assay. These assays were utilized to determine the effectiveness of said compounds and compositions with regard to attracting or repelling mosquitoes of the species Aedes aegypti. Due to the highly conserved nature of the carbon dioxide receptor across the order Diptera, the results obtained for Aedes aegypti are likely to be intuitive with regard to other members of the mosquito family Culicidae as well as with regard to other dipteran family members.
The landing assay is an assay used to test for attraction toward human skin. A human gloved hand with an opening cutout protected by 2 layers of mesh was inserted into a 12×12×12 inch cage of female mosquitoes. The first layer of mesh was used to protect the human from chemical contact as well as mosquito contact. A second layer of mesh was treated with a chemical compound or composition that had been dissolved at a concentration of 1% in acetone and allowed to dry on said mesh for three minutes. This second layer of mesh was placed on top of the first mesh layer. The two mesh layers were separated by outer magnetic strips to hold the layers in place on the glove. This experimental design allows the test subjects, starved female mosquitoes, to be exposed to human skin odors as well as the compound or composition concurrently. The cage contained 30 female and 3 male mosquitoes. The landing of mosquitoes on the treated surface was videotaped over a 5 minute time course and the number of landings during that time period was recorded. Mesh treated with acetone alone was used as a negative control. This experiment was done in triplicate for each compound or composition tested. The results from one such experiment are pictured in FIG. 2.

[7] = test system: bed bugs; test: bed bug luring assay; assay type: in vivo; conditions: cottonball with 100 microliters solution, total 100 mg compound(s), 10 bed bugs, overnight
Description: Assays were conducted to measure the ability of compounds and compound combinations to attract bed bugs. A testing arena habitat comprising a small plastic container was placed inside of a larger, secondary container. The top half inch was removed from two bathroom sized solo cups and each cup was placed on opposite sides of the testing arena habitat, one inch away from the wall. Each outer part of the cup was textured using sandpaper, as bed bugs cannot climb smooth surfaces. A paper towel was used to line the floor of the testing arena habitat. The top, removed portion of one of the solo cups was placed mouth side down in the center of the arena. In one of the cups, a cottonball was placed and treated with 100 microliters of compound or compound combination solution [comprising a total of 100 mg of compound(s).] 10 bed bugs were placed within the center cut off cup top and the testing arena habitat was covered and placed within a dark, climate controlled room overnight. The next day, the number of bed bugs that crawled into the baited cup were recorded and the % attractancy was calculated as the percentage of bugs that crawled into the baited cup as compared to the total number of bed bugs. In the Table, “Att” refers to attractancy and “Cmpd” refers to compound.

[8] = test system: female mosquitoes; conditions: in vivo
[9] = test system: cpB and cpC neurons; test: extracellular single-sensillum electrophysiology: beta activators; assay type: in vivo, Aedes aegypti; conditions: for Class A (beta activator, individual component): Table 15, single component alone, Beta Actv; for beta activator (stimulates cpB and cpC neuronal activity): single compound
Source text: Three types of CO2-responsive neurons reside in the maxillary palp of mosquitoes. These include cpA, cpB and cpC neurons. […] These neurons produce spikes with much lower amplitude than those produced by cpA neurons. Although the activity from cpB and cpC neurons cannot easily be distinguished from one another, their collective activity can be distinguished from cpA neurons due to their characteristic spikes. This is useful in the identification of compounds and compositions that only activate or inhibit cpB and cpC neurons or compounds and compositions that activate or inhibit both.
Carbon dioxide receptor neurons are housed within the basiconic sensilla of the mosquito maxillary palp. While activity from cpA neurons produces the largest amplitude spike, cpB and cpC neurons present in this region are also responsive to skin odors. Activity from these neurons can also be detected through the electrophysiological methods described in Example 1.
Although the activity from cpB and cpC neurons cannot easily be distinguished from one another, their collective activity can be distinguished from cpA neurons due to their production of spikes with much lower amplitude than those produced by cpA neurons.

[10] = test system: cpA neurons; test: extracellular single-sensillum electrophysiology: inhibition of CO2-responsive (cpA) neuronal activity; conditions: Table 10; single compounds; percent reduction in cpA activity compared to baseline
[11] = 0.25% compound, 24 hour exposure, dead larvae / total larvae
[12] = 100 ppm compound, 24 hour exposure, dead larvae / total larvae

Structure (SMILES)	pest or weed control at 0.25 % [2, 11]	pest or weed control at 100 ppm [2, 12]	% Rep (bed bug repellency) [3]	mortality at 200 µg/mL [4]	mortality at 2000 µg/mL [4]	Class [5]	% Att (bed bug attractancy) [7]	also measured
Cc1ccnc(C)c1 [OLI0001, 2,4-lutidine]	100%	0%	39%	0%	0%	Strong Activator (strong activators yield an increase in activity that is >60 spk/sec over baseline neuronal activity)		behaviour in netsphere assay (attractant or repellent) [1]: acted as a repellent; effect on CO2-receptor activity (FIG. 1) ([5]; 1% concentration in paraffin oil): activator; activator class of single compound [5]: strong activator (spike rate of 60-100 spk/sec over the baseline activity of the neuron)
CCc1cnccn1 [OLI0002, 2-ethylpyrazine]	50%	0%	49%	0%	0%	Strong Activator (strong activators yield an increase in activity that is >60 spk/sec over baseline neuronal activity)		number of landings [6]: 12 landings; behaviour in landing assay (lure or repellent) [6]: repellent; activator class of single compound [5]: activator
COc1cnccn1 [OLI0003, 2-methoxypyrazine]	100%	0%	22%	0%	0%	Strong Activator (strong activators yield an increase in activity that is >60 spk/sec over baseline neuronal activity)	30%	
O=C1CCCC1 [OLI0008, cyclopentanone]	85%	0%		0%	0%	Strong Activator (strong activators yield an increase in activity that is >60 spk/sec over baseline neuronal activity)	50%	number of landings [6]: 39 landings; behaviour in landing assay (lure or repellent) [6]: act as lures; behaviour in netsphere assay (attractant or repellent) [1]: act as attractants; also recorded: attract mosquitoes
CSC(C)=O [OLI0025, methanethiol acetate]						Moderate Activator (Moderate activators yield an increase in neuronal activity that is between 40 and 60 spk/sec over baseline neuronal activity)	20%	% Lethality with 0.25% compound conc. [2, 11]: 100% lethal; % Lethality at 100 ppm [2, 12]: 0% lethal; % mortality with 0.2 mg/ml [8]: 0%; % mortality with 2 mg/ml [8]: 0%; Comp B Class ([5]; Table 9): Mod; Class B (activator class of the individual component) [5]: Mod
C/C=C/C(=O)OC [OLI0026, methyl crotonate]	87.5%	0%	38%	0%	0%	Moderate Activator (Moderate activators yield an increase in neuronal activity that is between 40 and 60 spk/sec over baseline neuronal activity)	20%	Comp B Class ([5]; Table 9): Mod; Class B (activator class of the individual component) [5]: Mod
COC(=O)CCC(C)=O [OLI0027, methyl levulinate]	50%	0%	20%	0%	0%	Moderate Activator (Moderate activators yield an increase in neuronal activity that is between 40 and 60 spk/sec over baseline neuronal activity)	10%	Class A (beta activator, individual component) [9]: Beta; beta activator (stimulates cpB and cpC neuronal activity) [9]: beta activators; Comp A Class ([5]; Table 9, component A tested individually): Mod; activator class of single compound [5]: moderate cpA activator
CCCOC=O [OLI0063, propyl formate]				0%	0%	Mild Activator (mild activators yield an increase in neuronal activity that is between 20 and 40 spk/sec over baseline neuronal activity)	30%	pest or weed control at 100 ppm ([2]; 24 h): 0%; pest or weed control at 0.25 % ([2]; 24 h): 0%; Comp B Class ([5]; Table 9): Mild
COc1nccnc1C [OLI0070, 2-methoxy-3-methylpyrazine]	100%	0%		0%	0%		10%	Class [10]: Strong Inhibitor (strong inhibitors (reducing activity >60%))
CCCCCCOC=O [OLI0097, hexyl formate]			44%	0%	0%		30%	Class A (beta activator, individual component) [9]: Beta; beta activator (stimulates cpB and cpC neuronal activity) [9]: beta activators; pest or weed control at 100 ppm ([2]; 24 h): 0%; pest or weed control at 0.25 % ([2]; 24 h): 5%
CCC(=O)OCCC(C)C [OLI0099, isoamyl propionate]	0%	0%	17%	0%	0%		10%	Class A (beta activator, individual component) [9]: Beta; beta activator (stimulates cpB and cpC neuronal activity) [9]: beta activators
